Three compounds from US11208412B2 (DAEGU-GYEONGBUK MEDICAL INNOVATION FOUNDATION, priority 2017, dated 2021) can be followed below.

Common to all, as to assay: Kinase selectivity, DiscoverX scanMAX Kinase assay panel (% control)
Holding throughout (format): binding

The target in test [1] is T1, kinases of the scanMAX Kinase assay panel (Homo sapiens, UniProt Q6ZWH5).
T1 construct: purchased DiscoverX Co. (contract measurement) scanMAX Kinase assay panel
T1 sequence (Q6ZWH5 1-1172): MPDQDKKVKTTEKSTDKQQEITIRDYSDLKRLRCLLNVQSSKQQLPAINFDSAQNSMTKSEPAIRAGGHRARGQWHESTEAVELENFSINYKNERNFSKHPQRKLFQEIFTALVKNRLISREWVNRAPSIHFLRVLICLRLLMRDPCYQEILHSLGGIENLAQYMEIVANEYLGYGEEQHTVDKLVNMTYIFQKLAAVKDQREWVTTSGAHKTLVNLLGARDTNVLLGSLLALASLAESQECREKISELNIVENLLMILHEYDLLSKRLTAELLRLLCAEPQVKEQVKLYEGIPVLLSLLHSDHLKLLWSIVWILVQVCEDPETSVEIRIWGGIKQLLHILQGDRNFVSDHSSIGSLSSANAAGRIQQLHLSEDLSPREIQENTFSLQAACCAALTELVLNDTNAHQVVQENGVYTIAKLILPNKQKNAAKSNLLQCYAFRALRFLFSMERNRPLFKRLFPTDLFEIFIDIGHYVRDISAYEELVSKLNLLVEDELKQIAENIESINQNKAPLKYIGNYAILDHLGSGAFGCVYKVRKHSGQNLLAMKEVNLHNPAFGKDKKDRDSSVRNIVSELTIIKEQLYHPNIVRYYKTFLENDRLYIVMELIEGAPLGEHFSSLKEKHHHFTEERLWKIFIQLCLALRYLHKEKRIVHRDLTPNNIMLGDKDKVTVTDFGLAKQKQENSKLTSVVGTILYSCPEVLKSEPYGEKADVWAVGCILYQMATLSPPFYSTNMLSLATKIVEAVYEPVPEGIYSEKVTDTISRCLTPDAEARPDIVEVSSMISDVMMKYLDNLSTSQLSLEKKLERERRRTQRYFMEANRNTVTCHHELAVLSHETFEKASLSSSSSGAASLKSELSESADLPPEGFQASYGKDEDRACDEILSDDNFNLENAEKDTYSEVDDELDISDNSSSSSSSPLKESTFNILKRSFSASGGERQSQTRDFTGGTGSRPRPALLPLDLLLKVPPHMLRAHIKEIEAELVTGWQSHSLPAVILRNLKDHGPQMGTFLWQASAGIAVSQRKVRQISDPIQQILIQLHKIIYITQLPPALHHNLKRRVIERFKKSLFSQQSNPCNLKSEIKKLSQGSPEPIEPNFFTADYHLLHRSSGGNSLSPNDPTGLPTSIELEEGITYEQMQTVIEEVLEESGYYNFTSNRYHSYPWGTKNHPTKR
The following applies: NEK10; 1 uM. Here is the method: (§1) The following experiment was performed to evaluate the activity of the compounds of the present invention to inhibit many enzymes.
(§2) Particularly, the compounds of Examples 8, 64 and 104 were selected among all of those compounds of the invention. DiscoverX Co. was asked to measure the enzyme (kinase) selectivity, and the experiment was performed using scanMAX™ Kinase assay panel.
(§3) Wherein, the concentration of the drug treated to each enzyme was 1 uM in DMSO and the control percentage (% control) was determined by the following Equation 1. (example compound−positive control)/(negative control−positive control)×100 [Equation 1]
(§4) Herein, the positive control indicates the compound showing the % control of 0%, and the negative control indicates DMSO showing the % control of 100%. The enzyme selectivity in the present invention is defined as follows: When the % control for each enzyme is less than 35% (<35%), it is judged that the compound has the activity to the corresponding enzyme.

The target of test [2] is T2, kinases of the scanMAX Kinase assay panel (Homo sapiens, UniProt Q8TDC3).
T2 construct: purchased DiscoverX Co. (contract measurement) scanMAX Kinase assay panel
T2 sequence (Q8TDC3 1-778): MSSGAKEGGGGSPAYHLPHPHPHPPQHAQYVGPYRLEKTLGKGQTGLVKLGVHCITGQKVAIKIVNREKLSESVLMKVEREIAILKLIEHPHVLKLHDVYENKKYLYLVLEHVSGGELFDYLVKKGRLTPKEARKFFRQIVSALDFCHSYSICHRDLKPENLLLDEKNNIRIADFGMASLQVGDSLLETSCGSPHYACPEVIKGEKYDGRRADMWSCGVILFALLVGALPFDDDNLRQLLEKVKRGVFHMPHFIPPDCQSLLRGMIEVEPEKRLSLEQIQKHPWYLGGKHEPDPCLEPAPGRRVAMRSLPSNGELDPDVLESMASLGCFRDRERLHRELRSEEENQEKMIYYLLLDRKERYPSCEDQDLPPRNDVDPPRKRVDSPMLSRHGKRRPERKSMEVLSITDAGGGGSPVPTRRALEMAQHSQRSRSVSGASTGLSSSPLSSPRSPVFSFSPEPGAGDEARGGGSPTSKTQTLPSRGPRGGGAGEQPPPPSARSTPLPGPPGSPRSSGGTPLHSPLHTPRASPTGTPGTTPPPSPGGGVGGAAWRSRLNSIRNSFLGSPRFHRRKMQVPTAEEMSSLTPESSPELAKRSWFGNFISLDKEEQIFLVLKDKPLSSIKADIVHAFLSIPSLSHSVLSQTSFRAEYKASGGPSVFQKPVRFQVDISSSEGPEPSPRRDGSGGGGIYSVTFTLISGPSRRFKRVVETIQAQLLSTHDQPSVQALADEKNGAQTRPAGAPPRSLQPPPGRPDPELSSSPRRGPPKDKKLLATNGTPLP
The following applies: BRSK1; 1 uM. Here is the method:
as §1, §2, §3, §4

Test [3] has as its target T3, kinases of the scanMAX Kinase assay panel (Homo sapiens, UniProt P10721, T670I/V559D).
T3 construct: purchased DiscoverX Co. (contract measurement) scanMAX Kinase assay panel
Conditions: KIT(V559D, T670I); 1 uM. Here is the method: as §1, §2, §3, §4

The target in test [4] is T4, kinases of the scanMAX Kinase assay panel (Homo sapiens, UniProt P07947).
T4 construct: purchased DiscoverX Co. (contract measurement) scanMAX Kinase assay panel
Conditions: kinase YES; 1 uM in DMSO. Here is the method: as §1, §2, §3, §4

Test [5] has as its target T5, kinases of the scanMAX Kinase assay panel (Homo sapiens, UniProt P42338).
T5 construct: purchased DiscoverX Co. (contract measurement) scanMAX Kinase assay panel
The following applies: PIK3CB; 1 uM. Here is the method: as §1, §2, §3, §4

In test [6] the target is T6, kinases of the scanMAX Kinase assay panel (Homo sapiens, UniProt Q96PN8).
T6 construct: purchased DiscoverX Co. (contract measurement) scanMAX Kinase assay panel
T6 sequence (Q96PN8 1-268): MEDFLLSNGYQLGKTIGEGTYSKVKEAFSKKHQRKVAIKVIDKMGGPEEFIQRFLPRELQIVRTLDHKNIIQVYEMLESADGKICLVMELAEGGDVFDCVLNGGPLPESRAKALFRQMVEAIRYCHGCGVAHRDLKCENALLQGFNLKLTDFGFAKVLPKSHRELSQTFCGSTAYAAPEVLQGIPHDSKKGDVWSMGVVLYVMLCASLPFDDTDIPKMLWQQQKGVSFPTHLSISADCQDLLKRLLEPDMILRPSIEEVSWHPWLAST
The following applies: kinase TSSK3; 1 uM in DMSO. Here is the method:
as §1, §2, §3, §4

The target in test [7] is T7, kinases of the scanMAX Kinase assay panel (Homo sapiens, UniProt O43683).
T7 construct: purchased DiscoverX Co. (contract measurement) scanMAX Kinase assay panel
Conditions: BUB1; 1 uM. Here is the method:
as §1, §2, §3, §4

T7 sequence (O43683 whole entry): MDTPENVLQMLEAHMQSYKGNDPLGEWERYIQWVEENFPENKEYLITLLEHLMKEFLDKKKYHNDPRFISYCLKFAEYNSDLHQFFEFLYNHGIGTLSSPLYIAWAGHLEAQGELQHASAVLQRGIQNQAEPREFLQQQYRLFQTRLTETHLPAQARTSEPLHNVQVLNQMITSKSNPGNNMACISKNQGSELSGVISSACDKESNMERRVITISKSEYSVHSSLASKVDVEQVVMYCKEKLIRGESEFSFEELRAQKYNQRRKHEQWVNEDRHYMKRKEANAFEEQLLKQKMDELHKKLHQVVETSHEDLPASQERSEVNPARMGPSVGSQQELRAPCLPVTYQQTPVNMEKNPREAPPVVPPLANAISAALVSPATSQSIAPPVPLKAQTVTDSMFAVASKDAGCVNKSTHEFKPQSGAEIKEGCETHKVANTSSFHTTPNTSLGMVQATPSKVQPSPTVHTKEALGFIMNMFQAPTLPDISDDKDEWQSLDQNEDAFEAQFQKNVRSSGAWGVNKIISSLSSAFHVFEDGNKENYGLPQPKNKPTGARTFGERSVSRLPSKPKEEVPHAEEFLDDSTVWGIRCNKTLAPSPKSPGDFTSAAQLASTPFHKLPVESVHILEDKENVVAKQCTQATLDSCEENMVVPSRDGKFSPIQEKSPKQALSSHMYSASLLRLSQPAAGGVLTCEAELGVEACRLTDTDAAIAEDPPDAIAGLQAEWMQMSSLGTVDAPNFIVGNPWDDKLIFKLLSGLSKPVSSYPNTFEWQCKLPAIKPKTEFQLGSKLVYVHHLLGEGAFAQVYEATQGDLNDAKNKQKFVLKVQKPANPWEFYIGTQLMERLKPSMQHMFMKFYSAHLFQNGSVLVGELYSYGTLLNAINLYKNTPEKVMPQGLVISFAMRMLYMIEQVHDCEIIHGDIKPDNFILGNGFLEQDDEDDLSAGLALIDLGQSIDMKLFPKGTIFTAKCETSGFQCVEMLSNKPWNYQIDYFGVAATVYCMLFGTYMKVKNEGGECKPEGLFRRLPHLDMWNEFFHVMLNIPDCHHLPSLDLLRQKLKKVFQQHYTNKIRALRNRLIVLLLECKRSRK
T5 sequence (P42338 whole entry): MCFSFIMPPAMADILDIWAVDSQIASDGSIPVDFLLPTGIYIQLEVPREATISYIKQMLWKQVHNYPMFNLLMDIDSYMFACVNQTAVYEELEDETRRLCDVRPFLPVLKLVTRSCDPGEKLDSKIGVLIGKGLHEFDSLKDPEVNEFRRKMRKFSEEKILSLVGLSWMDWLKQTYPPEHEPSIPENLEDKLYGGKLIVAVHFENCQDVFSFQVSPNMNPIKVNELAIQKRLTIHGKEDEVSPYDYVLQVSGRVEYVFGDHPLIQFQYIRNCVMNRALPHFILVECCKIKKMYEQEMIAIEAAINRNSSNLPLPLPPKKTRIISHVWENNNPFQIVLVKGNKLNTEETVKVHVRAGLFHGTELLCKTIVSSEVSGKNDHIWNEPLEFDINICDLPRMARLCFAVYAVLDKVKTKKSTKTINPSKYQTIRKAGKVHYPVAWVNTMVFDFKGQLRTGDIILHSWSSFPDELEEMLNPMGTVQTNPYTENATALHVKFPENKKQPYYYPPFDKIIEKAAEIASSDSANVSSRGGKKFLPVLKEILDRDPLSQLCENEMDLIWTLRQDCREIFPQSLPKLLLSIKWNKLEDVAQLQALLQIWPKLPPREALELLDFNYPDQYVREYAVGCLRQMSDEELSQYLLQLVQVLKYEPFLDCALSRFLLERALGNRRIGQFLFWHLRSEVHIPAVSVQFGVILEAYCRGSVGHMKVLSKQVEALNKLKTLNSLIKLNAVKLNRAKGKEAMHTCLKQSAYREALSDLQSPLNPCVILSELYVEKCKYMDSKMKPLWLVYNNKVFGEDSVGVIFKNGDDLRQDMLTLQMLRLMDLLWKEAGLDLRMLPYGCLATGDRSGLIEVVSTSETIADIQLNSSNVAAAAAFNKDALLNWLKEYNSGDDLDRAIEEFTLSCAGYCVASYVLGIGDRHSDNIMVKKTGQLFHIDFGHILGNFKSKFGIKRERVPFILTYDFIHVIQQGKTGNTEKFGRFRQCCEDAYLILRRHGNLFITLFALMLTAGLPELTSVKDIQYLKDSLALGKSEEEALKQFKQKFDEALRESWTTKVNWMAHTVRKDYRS
T4 sequence (P07947 whole entry): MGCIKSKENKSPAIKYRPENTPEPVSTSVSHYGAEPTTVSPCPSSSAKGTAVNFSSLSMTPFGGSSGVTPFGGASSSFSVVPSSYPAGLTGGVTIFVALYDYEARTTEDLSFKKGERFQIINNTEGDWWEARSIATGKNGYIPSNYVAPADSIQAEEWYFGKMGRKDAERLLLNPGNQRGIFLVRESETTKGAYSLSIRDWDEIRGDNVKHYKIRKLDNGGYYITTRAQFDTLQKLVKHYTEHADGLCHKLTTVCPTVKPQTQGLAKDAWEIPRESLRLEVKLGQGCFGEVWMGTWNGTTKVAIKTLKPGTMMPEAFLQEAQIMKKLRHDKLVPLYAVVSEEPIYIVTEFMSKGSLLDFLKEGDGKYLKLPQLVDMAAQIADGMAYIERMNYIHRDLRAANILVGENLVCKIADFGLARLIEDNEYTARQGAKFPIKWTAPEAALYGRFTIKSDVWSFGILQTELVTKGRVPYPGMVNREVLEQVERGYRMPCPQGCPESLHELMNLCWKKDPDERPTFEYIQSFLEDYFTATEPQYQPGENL
T3 sequence (P10721 26-976 V559D/T670I): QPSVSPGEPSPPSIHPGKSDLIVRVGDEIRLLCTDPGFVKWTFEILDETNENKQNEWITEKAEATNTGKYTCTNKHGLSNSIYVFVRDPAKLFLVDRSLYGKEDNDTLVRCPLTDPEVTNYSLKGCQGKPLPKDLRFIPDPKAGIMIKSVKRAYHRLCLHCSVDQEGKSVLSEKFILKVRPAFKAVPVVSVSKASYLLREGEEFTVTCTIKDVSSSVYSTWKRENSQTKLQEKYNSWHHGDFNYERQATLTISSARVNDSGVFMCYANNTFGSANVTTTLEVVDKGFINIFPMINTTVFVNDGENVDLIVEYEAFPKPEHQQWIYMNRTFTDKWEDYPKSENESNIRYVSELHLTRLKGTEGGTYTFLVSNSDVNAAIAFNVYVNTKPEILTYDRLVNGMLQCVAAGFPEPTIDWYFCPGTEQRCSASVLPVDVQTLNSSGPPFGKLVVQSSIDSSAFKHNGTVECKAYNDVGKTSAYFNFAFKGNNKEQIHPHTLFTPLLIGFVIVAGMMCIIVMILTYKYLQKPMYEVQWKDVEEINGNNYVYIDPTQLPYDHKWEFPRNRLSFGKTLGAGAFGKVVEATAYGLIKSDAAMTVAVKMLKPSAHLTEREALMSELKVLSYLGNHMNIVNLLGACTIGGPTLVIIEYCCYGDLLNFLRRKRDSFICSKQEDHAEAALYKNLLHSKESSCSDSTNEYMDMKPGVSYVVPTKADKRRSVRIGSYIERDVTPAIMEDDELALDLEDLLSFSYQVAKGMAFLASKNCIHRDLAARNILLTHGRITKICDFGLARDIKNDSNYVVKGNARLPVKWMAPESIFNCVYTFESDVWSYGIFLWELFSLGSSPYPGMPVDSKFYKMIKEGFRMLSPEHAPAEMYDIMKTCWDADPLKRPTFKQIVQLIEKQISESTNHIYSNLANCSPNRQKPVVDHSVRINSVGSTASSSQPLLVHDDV

Regarding `CNc1nc(Nc2ccc(C(=O)N3CCOCC3)cc2OC)nc2[nH]cc(C#N)c12` [Example 1, 2-((2-methoxy-4-(morpholine-4-carbonyl)phenyl)amino)-4-(methylamino)-7H-pyrrolo[2,3-d]pyrimidine-5-carbonitrile], the remaining binding at 1 µM in test [1] amounted to 53%; in test [2] it was 97%; in test [3], 73%; in test [4], 100%; in test [5], 96%; in test [6], 74%. Besides, in test [7], the remaining binding at 1 µM came out at 36%.

In the case of `CC1(Nc2nc(Nc3cnn([C@H]4CCN(C5COC5)C[C@@H]4F)c3Cl)nc3[nH]cc(C#N)c23)CC1` [Example 52, 2-((5-chloro-1-((3S,4S)-3-fluoro-1-(oxetane-3-yl)piperidine-4-yl)-1H-pyrazole-4-yl)amino)((1-methylcyclopropyl)amino)-7H-pyrrolo[2,3-d]pyrimidine-5-carbonitrile], the remaining binding at 1 µM in test [1] came out at 0.95%; in test [2] it was 96%; in test [3], 0.4%; in test [4] it was 10%; in test [5] it was 100%; in test [6], 72%. This compound gave a remaining binding at 1 µM in test [7] of 0.2%.

For the compound `CCNc1nc(Nc2ccc(C(=O)N3CCC(N4CCOCC4)CC3)cc2OC)nc2[nH]cc(C(F)(F)F)c12` [Example 104, (4-((4-(ethylamino)-5-(trifluoromethyl)-7H-pyrrolo[2,3-d]pyrimidine-2-yl)amino)-3-methoxyphenyl)(4-morpholinopiperidine-1-yl)methanone], the remaining binding at 1 µM came out at 100% in test [1]; 100% in test [2]; 87% in test [3]; 100% in test [4]; 92% in test [5]; 100% in test [6]. The same compound gave a remaining binding at 1 µM in test [7] of 95%.
